Data as given in patent US20210171564A1, “COMPOSITIONS AND METHODS FOR THE TREATMENT OF CANCER” (Cellix Bio Private Limited, priority 2018, published 2021).
Where “and” joins values, the source holds several entries; their conditions need not be identical. Identical values can stand only once. Entries after “also recorded” stand apart in the source; their conditions may differ.

Legend:
[1] = test system: HCT116 human colon cancer xenograft; assay: Anti-tumor efficacy in HCT-116 xenograft model in Foxn1 nude mice (tumor growth inhibition); format: in vivo, Foxn1 athymic nude female mice; settings: for % Tumor Growth Inhibition (% TGI): oral; for tumor growth inhibition: day not given
Excerpt: Evaluation of Anti-Tumor Efficacy of Test Compound (CLX-Syn-G155A-C03) in HCT-116 Xenograft Model in Fox N1 Nude Mice:
(§1) The purpose of this study was to evaluate the anti-tumor activity of test compound administered by oral gavage, for a period of 17 days in HCT116 human colon cancer xenograft bearing Foxn1 athymic nude mice. The anti-tumor activity of test compound was compared with capecitabine. Foxn1 athymic nude female mice (7-8 weeks) were implanted with human colon cancer cell line, HCT116 (5 million cells/site) subcutaneously in the dorsal right flank. The animals were randomized (N=10) into different treatment groups as vehicle control, test compound (300 mg/kg, QD, 150 mg/kg BID, 1000 mg/kg QD and 500 mg/kg BID or capecitabine (1000 mg/kg QD and 500 mg/kg BID) based on the tumor volume, when the subcutaneous tumor reached a volume in the range of 70-137 mm^3.
(§2) The animals in the control group were dosed with the formulation used for test compound, which consisted of 0.5% w/v HPMC+0.5% w/v Tween-80 in purified water (q.s) at the dose volume of […]. The Capecitabine formulation was prepared using 0.5% Hydroxypropyl methylcellulose (HPMC E 15) in 40 mM citrate buffer, pH 6.0 at the dose volume of 10 mL/kg. Treatment to animals was performed initially for ten days dosing followed by 2 off doses days and then continued for another 7 days. […] Tumor growth inhibition (TGI) was calculated based on the tumor volume on a given day as compared to that on day 1. On day 19, blood samples were collected from test compound 1000 mg/kg QD and Capecitabine 1000 mg/kg QD groups at 0 hr; prior to dosing (first dose administration in morning) and at 0.5, 1, 2, 4, 8 and 24 hours post dosing to evaluate the pharmacokinetic parameters of various metabolites (5′-DFCR, 5′-DFUR, 5-Fluorouracil and valproic acid).

[2] = Toxicity profile in the xenograft study (mortality, clinical signs, body weight); format: in vivo; settings: for Diarrhea / Hunch back / Morality: animals affected/10
Excerpt: as §1, §2

SMILES	% Tumor Growth Inhibition (% TGI) ([1]; 500 mg/kg BID, day 4) [%]	% Tumor Growth Inhibition (% TGI) ([1]; 500 mg/kg BID, day 6) [%]	% Tumor Growth Inhibition (% TGI) ([1]; 500 mg/kg BID, day 8) [%]	% Tumor Growth Inhibition (% TGI) ([1]; 500 mg/kg BID, day 11) [%]	% Tumor Growth Inhibition (% TGI) ([1]; 500 mg/kg BID, day 13) [%]	% Tumor Growth Inhibition (% TGI) ([1]; 500 mg/kg BID, day 15) [%]	tumor growth inhibition ([1]; 1000 mg/kg QD (once daily)) [%]	% Tumor Growth Inhibition (% TGI) ([1]; 1000 mg/kg QD, day 4) [%]	% Tumor Growth Inhibition (% TGI) ([1]; 1000 mg/kg QD, day 6) [%]	% Tumor Growth Inhibition (% TGI) ([1]; 1000 mg/kg QD, day 8) [%]	% Tumor Growth Inhibition (% TGI) ([1]; 1000 mg/kg QD, day 11) [%]	% Tumor Growth Inhibition (% TGI) ([1]; 1000 mg/kg QD, day 13) [%]	% Tumor Growth Inhibition (% TGI) ([1]; 1000 mg/kg QD, day 15) [%]	further results
CCCC(CCC)C(=O)Nc1nc(=O)n([C@@H]2O[C@H](C)[C@@H](OC(C)=O)[C@H]2OC(C)=O)cc1F [Test Compound, (2R,3R,4R,5R)-2-(5-fluoro-2-oxo-4-(2-propylpentanamido)pyrimidin-1(2H)-yl)-5-methyltetrahydrofuran-3,4-diyl diacetate]	76.3	74.8	81.3	87.7	95.4	96.6	> 90	66.0	70.5	73.3	78.4	88.1	90.9	% Tumor Growth Inhibition (% TGI) ([1]; 150 mg/kg BID, day 4): 37.4%; % Tumor Growth Inhibition (% TGI) ([1]; 150 mg/kg BID, day 6): 40.2%; % Tumor Growth Inhibition (% TGI) ([1]; 150 mg/kg BID, day 8): 39.2%; % Tumor Growth Inhibition (% TGI) ([1]; 150 mg/kg BID, day 11): 47.6%; % Tumor Growth Inhibition (% TGI) ([1]; 150 mg/kg BID, day 13): 55.7%; % Tumor Growth Inhibition (% TGI) ([1]; 150 mg/kg BID, day 15): 54.7%; % Tumor Growth Inhibition (% TGI) ([1]; 300 mg/kg QD, day 4): 58.8%; % Tumor Growth Inhibition (% TGI) ([1]; 300 mg/kg QD, day 6): 51.0%; % Tumor Growth Inhibition (% TGI) ([1]; 300 mg/kg QD, day 8): 55.5%; % Tumor Growth Inhibition (% TGI) ([1]; 300 mg/kg QD, day 11): 60.7%; % Tumor Growth Inhibition (% TGI) ([1]; 300 mg/kg QD, day 13): 67.2%; % Tumor Growth Inhibition (% TGI) ([1]; 300 mg/kg QD, day 15): 70.4%; antitumor activity of once a day schedule versus twice a day schedule (150 mg/kg BID) ([1]; 300 mg/kg/day once daily): better antitumor activity; antitumor activity against HCT-116 human colon cancer xenografts ([1]; oral gavage, QD and BID dosage regimen): statistically significant, dose dependent tumor growth inhibition; also recorded: statistically significant dose dependent antitumor activity
CCCCCOC(=O)Nc1nc(=O)n([C@@H]2O[C@H](C)[C@@H](O)[C@H]2O)cc1F [Capecitabine, reference compound]	87.0	82.9	85.8	89.3	93.6	94.1	94.1	76.8	71.5	71.7	77.2	86.9	87.6	tumor growth inhibition ([1]; 500 mg/kg BID): 87.6%; Mean % body weight reduction ([2]; 500 mg/kg BID): −16.8%; Diarrhea ([2]; 500 mg/kg BID): 1/10; Hunch back ([2]; 500 mg/kg BID): 3/10; Morality ([2]; 500 mg/kg BID): 2/10; Mean % body weight reduction ([2]; 1000 mg/kg QD): −24.5%; Diarrhea ([2]; 1000 mg/kg QD): 0/10; Hunch back ([2]; 1000 mg/kg QD): 3/10; Morality ([2]; 1000 mg/kg QD): no mortality and 0/10
